Patent publication US20070128303A1, “Anti-inflammatory, cytoprotective factor derivable from a probiotic organism” (THE UNIVERSITY OF CHICAGO, priority 2004, published 2007)
Each block holds one compound with its values, some of them ahead of it. Starred links: 1 amine or outer side, 2 acyl side, 3 side chain; linkers in the order of their positions; H or OH if unused. Positions of bridges follow the written chain, without caps; N, C: chain ends. Non-standard residues stand in square brackets, D forms with d. Residues, ends and D or L forms follow the SMILES beside them. *: point of attachment. Trp(2-yl) = O=C([C@H](Cc1c([*:3])[nH]c2ccccc12)N[*:1])[*:2]; Leu(4R-OH,5-OH) = C[C@](O)(CO)C[C@H](N)C(=O)O; cisHyp = O=C(O)[C@@H]1C[C@H](O)CN1; Cbz = O=C(OCc1ccccc1)*

Columns and labels:
F/G actin = F/G actin assay, YAMC cells under oxidant stress; type: cell-based, mouse; settings: phalloidin 30 μg/ml 2 hours; cytochalasin D 10 μg/ml 15 min
Experimental: F/G actin assays were conducted by initially shifting confluent YAMC cell monolayers to 37° C. in IFN-γ-free medium and treating with VSL#3-CM overnight. Prior to assessment, cells were treated with phalloidin (30 μg/ml for 2 hours; Molecular probes, Eugene, Oreg.), cytochalasin D (10 μg/ml for 15 min), or the oxidant monochloramine (0.6 mM for 30 minutes). Cells were rinsed in PBS, harvested, centrifuged (14,000×g for 20 seconds at room temperature) and the pellets resuspended in 200 μl of 30° C. lysis buffer (1 mM ATP, 50 mM PIPES, pH 6.9, 50 mM NaCl, 5 mM MgCl2, 5 mM EGTA, 5% (vol/vol) glycerol, 0.1% (vol/vol) Nonidet P-40, Tween 20, and Triton X-100, containing complete protease inhibitor cocktail). Cells were homogenized by gently pipetting up and down ten times and incubated at 30° C. for 10 minutes. Samples were centrifuged at 100,000×g for 60 minutes at 30° C. and the supernatants were removed for determination of G actin content. Pellets containing F-actin were resuspended in 200 μl of 4° C. distilled water with 1 μM cytochalasin D and left on ice for 60 minutes. Then, 20 μl of each extraction was removed, 6 μl 3× Laemmli stop solution was added and the samples were heated to 65° C. for 10 minutes. Samples were resolved by 12.5% SDS-PAGE and immediately transferred to PVDF membranes. […]

[1] = target: T1, trypsin-like activity of the proteasome (Mus musculus, UniProt P70195); experiment: Proteasome assay on YAMC cell lysates, substrate Bz-val-gly-arg-AMC; type: cell-based; settings: VSL#3-CM 16 hours; lactacystin 10 μM
T1 construct: endogenous in cells; host or cells: YAMC cell lysates
T1 sequence (P70195 44-277): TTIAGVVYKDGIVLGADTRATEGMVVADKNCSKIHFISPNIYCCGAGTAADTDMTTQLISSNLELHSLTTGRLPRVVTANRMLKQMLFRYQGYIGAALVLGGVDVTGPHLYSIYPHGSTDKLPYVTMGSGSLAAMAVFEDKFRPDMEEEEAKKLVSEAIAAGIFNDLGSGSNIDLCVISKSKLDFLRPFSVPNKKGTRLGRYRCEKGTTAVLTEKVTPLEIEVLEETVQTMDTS

[2] = target: T2, PGPH, or caspase-like, activity of the proteasome (Mus musculus, UniProt Q60692); experiment: Proteasome assay on YAMC cell lysates, substrate Z-leu-leu-glu-AMC; type: cell-based; settings: VSL#3-CM 16 hours, about equivalent to 10 μM lactacystin; lactacystin 10 μM
T2 construct: endogenous in cells; host or cells: YAMC cell lysates
T2 sequence (Q60692 1-238): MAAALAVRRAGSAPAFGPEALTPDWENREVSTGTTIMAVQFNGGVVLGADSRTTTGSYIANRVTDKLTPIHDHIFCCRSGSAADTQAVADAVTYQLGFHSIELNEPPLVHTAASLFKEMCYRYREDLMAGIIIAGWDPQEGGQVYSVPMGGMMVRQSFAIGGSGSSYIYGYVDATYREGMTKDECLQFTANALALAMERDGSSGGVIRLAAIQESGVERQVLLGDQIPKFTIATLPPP

Hsp25 and Hsp72 = experiment: Immunoblot of Hsp25 and Hsp72 expression in YAMC cells; type: cell-based, mouse
Experimental: Twenty micrograms of protein per lane were resolved on 12.5% SDS-PAGE and transferred in 1× Towbin buffer (composition 25 mM Tris, 192 mM glycine, pH 8.8, 15% vol/vol methanol) onto PVDF membranes (Polyscreen, Perkin-Elmer NEN, Boston, Mass.) as previously described (Kojima, 2003), incorporated herein by reference. Membranes were blocked in 5% (wt/vol) non-fat milk in TBS-Tween (Tris-buffered saline (150 mM NaCl, 5 mM KCl, 10 mM Tris, pH 7.4) with 0.05% (vol/vol) Tween 20) for one hour at room temperature. For anti-ubiquitin blots, membranes were blocked in 3% bovine serum albumin (Fisher, Pittsburgh, Pa.). Primary antibody was added to TBS-Tween and incubated overnight at 4° C. with a specific anti-Hsp 25 antibody (SPA 801, Stressgen, Victoria, BC, Canada), anti-Hsp 72 antibody (SPA 810, Stressgen), anti-Hsc 73 antibody (SPA 815, Stressgen), anti-IκB-α antibody (sc-1643, Santa Cruz Biotechnology, Santa Cruz, Calif.), anti-phospho IκB-α antibody (sc-8404, Santa Cruz), or anti-ubiquitin antibody (PW 8810, Affiniti Research Products Ltd, Exeter, U.K.). Blots were then washed in TBS-Tween five times for 10 minutes each at room temperature before incubation with peroxidase-conjugated secondary antibodies (Jackson Immunoresearch Labs, Inc. Fort Washington, Pa.) for 1 hour at room temperature. […]

NF-κB = NF-κB ELISA assay (Active Motif), TNF-α stimulation; type: cell-based; settings: TNF-α 30 ng/ml
Experimental: The proteasome inhibitors in VSL#3 may be small organic molecules. Some proteasome inhibitors found in nature are small molecular weight organic esters or organic acid derivatives, such as those in green tea. An ether extraction of the VSL#3-CM was undertaken to determine if bioactive factors could be concentrated to produce a more consistent and robust response. […] TNF-α stimulation (30 ng/ml) alone caused a significant increase in NF-κB activation (second bar from left).

[3] = target: T3, 20S proteasomal component (barrel) (Homo sapiens, UniProt P28074); experiment: In vitro 20S proteasome assay (Calbiochem); type: biochemical; settings: 20S component, slopes compared
T3 construct: purchased Calbiochem
Experimental: Proteasome activity from cell lysates was determined using a 20S Proteasome assay kit (Calbiochem, San Diego, Calif.). Briefly, ice-cold cell lysate containing 20 μg protein was added to proteasome assay reaction buffer (25 mm HEPES, 0.5 mM EDTA, pH 7.6) activated with 0.03% (wt/vol) SDS. The sample was allowed to come to room temperature, then placed in a quartz cuvette and 10 μM of the substrate suc-leu-leu-val-tyr-AMC (SLLVY-AMC), Bz-val-gly-arg-AMC, or Z-leu-leu-glu-AMC was added. The SLLVY-AMC substrate is cleaved by the chymotrypsin-like activity of the proteasome, the Bz-val-gly-arg-AMC substrate is cleaved by the trypsin-like activity of the proteasome, and the Z-leu-leu-glu-AMC substrate is cleaved by the PGPH, or caspase-like, activity of the proteasome. Proteasome activity was determined by measuring the fluorogenic signal generated by cleavage of AMC (7-amino-4-methylcoumarin) from the peptide moiety of the proteasome substrate. Fluorescence (excitation at 380 nm, emission at 460 nm) was measured every minute for the first 10 minutes, then every 15 minutes thereafter in a Hitachi F-2000 fluorometer (Hitachi, Japan). Cells were treated with either MG132 (25 μM) or lactacystin (10 μM) as a positive inhibitor control. Untreated cells were treated with DMSO as a vehicle control for MG132 and lactacystin. Experiments were performed in triplicate. […]

Structure (SMILES): C[C@@H]1NC(=O)[C@H](C[C@@](C)(O)CO)NC(=O)[C@@H]2Cc3c([nH]c4ccccc34)SC[C@H](NC(=O)[C@@H]([C@H](C)O)NC1=O)C(=O)N1C[C@@H](O)C[C@H]1C(=O)N[C@@H](C)C(=O)N2 [phalloidin] (cyclo(A[dT]C[cisHyp]A[Trp(2-yl)][Leu(4R-OH,5-OH)]); thioether 3-6)
- effect on F- and G-actin, control agents (F/G actin): increasing the amount of F-actin

Structure (SMILES): C=C1[C@@H](C)[C@H]2[C@H](Cc3ccccc3)NC(=O)[C@]23[C@H](OC(C)=O)/C=C/[C@@](C)(O)C(=O)[C@@H](C)C/C=C/[C@H]3[C@@H]1O [cytochalasin D]
- effect on F- and G-actin, control agents (F/G actin): greatly increases the amount of globular (G) actin

- effect on trypsin-like activity of the proteasome [1]: inhibits
- effect on caspase-like activity of the proteasome [2]: only a weak inhibitor
Structure (SMILES): CC(=O)N[C@@H](CSC(=O)[C@]1([C@@H](O)C(C)C)NC(=O)[C@H](C)[C@@H]1O)C(=O)O [Lactacystin]
- cell toxicity limiting usable concentration (YAMC cells; concentrations higher than 10 μM): limited due to cell toxicity

Structure (SMILES): CC(C)C[C@@H](C=O)NC(=O)[C@H](CC(C)C)NC(=O)[C@H](CC(C)C)NC(=O)OCc1ccccc1 [MG132] (Cbz-Leu-Leu-Leu-aldehyde)
- appearance of Hsp signal (Hsp25 and Hsp72; MG132 25 μM time course): 7 to 14 h
- induction of Hsp25 and Hsp72 (Hsp25 and Hsp72; MG132 25 μM, more robust than thermal stress): very strong induction
- effect on TNF-α-stimulated NF-κB activity (NF-κB): significantly inhibited
- effect on in vitro proteasomal activity [3]: significant inhibition
- change in morphology and loss of cell viability (YAMC cells; 16 hours, MG132 at 25 μM, phase-contrast photographs): dramatic change in morphology and loss of cell viability
- cell viability compared to untreated control cells (YAMC cells; VSL#3-CM 24 hours of treatment, MG132 prolonged exposure): markedly increased cell death
